Results as given in US20090170899A1, “Stimulators of 5-HT4 receptors and uses thereof” (priority 2004, published 2009).

Test system: hippocampal CA3 pyramidal neurons
Experiment: Response of hippocampal CA3 pyramidal neurons to WAY 100635 after 3-day treatments (5-HT1A tonus)
Type: in vivo, rat
Experimental: FIGS. 8A to 8C. […] Single-cell extracellular recordings were performed in the CA3 region of chloral-hydrate anaesthetized rats by using multiple-barrel glass microelectrodes, combined with microiontophoretic pumps (with the central barrel used for recordings). Pyramidal neurons were identified according to the classical criteria (see Example 5, the experimental procedures). The 5-HT4 agonists were administered through the use of osmotic minipumps, inserted subcutaneously in the region of the back. Recordings were performed with the minipumps still in place. *p<0.05, **p<0.01, ***p<0.001 vs control, Dunnett's test. […] FIG. 8C is a typical example showing the response of a single pyramidal neuron to cumulative doses of WAY 100635, in a rat co-administered with RS 67333 (same treatment as above for FIG. 8A) and the 5-HT depleter para-chlorophenylalanine (pCPA; 150 mg/kg, i.p. once daily 72, 48 and 24 h before the recordings).
Drugs and Chemicals. The following compounds were used: GR 125487 sulphamate, prucalopride monohydrochloride, citalopram hydrobromide (gifts from Glaxo, Janssen and Lundbeck laboratories, respectively), RS 67333 hydrochloride (Tocris Cookson Inc., Ellisville, Mo., USA), WAY 100635 hydrochloride (Research Biochemicals, Natick, Mass., USA), pCPA methyl ester hydrochloride, BrdU (Sigma-Aldrich Canada, Oakville, Ontario, Canada). All compounds were diluted in distilled water. All drug dosages refer to the free base. For chronic treatments, prucalopride (2.5 mg/kg/day), RS 67333 (1.5 mg/kg/day) or the vehicle were delivered through osmotic minipumps (Alza, Palo Alto, Calif., USA), inserted subcutaneously in the region of the back under short-duration (≦5 min) halothane anesthesia. The 5-HT depleter PCPA was administered once daily at the dose of 150 mg/kg, i.p., 72, 48 and 24 h before the recordings. BrdU treatments consisted of two administrations per day (50 mg/kg, i.p. each, 8 h interval), starting from the day of minipump insertion until day 2 post-surgery.
Microiontophoresis and extracellular recordings from hippocampal CA3 pyramidal neurons. Recording and microiontophoresis were performed with five-barreled glass micropipettes broken back to 8-12 μm under microscope control. The central barrel was filled with the same solution as in the DRN and was used for extracellular unitary recordings. Pyramidal neurons were identified by their large amplitude (0.5-1.2 mV) and long-duration (0.8-1.2 ms) simple spikes alternating with complex spike discharges (Kandel and Spencer, 1961). The side barrels contained the following solutions: quisqualate (1.5 mM in 200 mM NaCl, pH 8), WAY 100635 (15 mM in 200 mM NaCl, pH 4), and 2 M NaCl used for automatic current balancing. Rats were mounted in the stereotaxic apparatus and the micropipettes were lowered at 4.2 mm lateral and 4.2 anterior to lambda into the CA3 sub-region of the dorsal hippocampus.
The firing activity of dorsal hippocampus pyramidal neurons was then recorded in the CA3 subfield, before and after systemic administration of the selective 5-HTLA antagonist WAY 100635.

Compound: N[C@@H](Cc1ccc(Cl)cc1)C(=O)O (racemic) [pCPA, para-chlorophenylalanine]
- quisqualate ejection currents needed to activate CA3 pyramidal neurons (rats co-treated with RS 67333 and pCPA): 0 to −2 nA
- effect of pCPA on the facilitory action of WAY 100635 (rats treated with RS 67333, pCPA 150 mg/kg i.p. 72, 48 and 24 h before): totally abolished
- effect of pCPA on CA3 neuron firing activity and response to WAY 100635 (vehicle group): no effect per se
